# Measured values as given in ChEMBL document CHEMBL1250518, “Nonsteroidal dissociated glucocorticoid agonists containing azaindoles as steroid A-ring mimetics” (J Med Chem, 2010).
# Legend:
# [1] = tested on: Mus musculus; experiment: Toxicity in collagen and Freund's complete adjuvant-induced B10.RIII mouse arthritis model assessed as increase of triglyceride level at 30 mg/kg, po qd for 5 weeks; assay type: organism-based; parameters: dose 30 mg/kg, route oral; conditions: in vivo, 840 h
# [2] = tested on: Mus musculus; experiment: Toxicity in B10.RIII mouse assessed as increase of triglyceride level at 30 mg/kg, po qd for 5 weeks; assay type: organism-based; parameters: dose 30 mg/kg, route oral; conditions: in vivo, 840 h
# [3] = tested on: Rattus norvegicus; experiment: Oral bioavailability in Sprague-Dawley rat at 30 mg/kg; assay type: ADME, organism-based; conditions: in vivo
# [4] = target: T1, Glucocorticoid receptor (Homo sapiens, UniProt P04150); experiment: Transrepression activity at glucocorticoid receptor in HFF assessed as inhibition of IL-1-induced IL-6 production after 18 to 24 hrs by ELISA; assay type: cell-based
# T1 sequence (P04150 whole entry): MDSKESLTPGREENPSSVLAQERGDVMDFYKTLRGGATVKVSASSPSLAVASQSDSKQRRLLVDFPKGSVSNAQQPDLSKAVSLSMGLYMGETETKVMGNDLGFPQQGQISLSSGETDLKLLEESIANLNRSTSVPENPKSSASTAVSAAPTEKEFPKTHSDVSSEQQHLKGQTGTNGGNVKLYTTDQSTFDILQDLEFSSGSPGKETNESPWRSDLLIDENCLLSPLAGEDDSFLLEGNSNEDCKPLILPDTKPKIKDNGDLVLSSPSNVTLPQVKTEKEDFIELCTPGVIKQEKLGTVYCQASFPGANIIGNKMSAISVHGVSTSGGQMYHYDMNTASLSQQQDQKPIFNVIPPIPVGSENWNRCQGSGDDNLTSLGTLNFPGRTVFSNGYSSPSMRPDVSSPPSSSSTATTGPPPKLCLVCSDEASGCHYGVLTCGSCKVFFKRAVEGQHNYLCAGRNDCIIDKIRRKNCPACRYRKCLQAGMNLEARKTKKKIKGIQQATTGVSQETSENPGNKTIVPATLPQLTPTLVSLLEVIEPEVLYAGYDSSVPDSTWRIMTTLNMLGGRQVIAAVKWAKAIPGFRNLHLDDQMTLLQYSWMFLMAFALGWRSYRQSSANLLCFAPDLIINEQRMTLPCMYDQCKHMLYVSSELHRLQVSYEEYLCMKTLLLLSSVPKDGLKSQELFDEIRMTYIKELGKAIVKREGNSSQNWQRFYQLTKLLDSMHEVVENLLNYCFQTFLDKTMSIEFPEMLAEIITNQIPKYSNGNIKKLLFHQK
# [5] = target: T1, Glucocorticoid receptor; experiment: Binding affinity to glucocorticoid receptor expressed in baculovirus-infected insect cells using tetramethylrhodamine labeled Dexamethasone by fluorescence polarization microplate assay
# [6] = Half life in Sprague-Dawley rat at 5 mg/kg, iv; assay type: ADME, organism-based; parameters: dose 5 mg/kg, route intravenous; conditions: in vivo
# [7] = tested on: Mus musculus; experiment: Toxicity in collagen and Freund's complete adjuvant-induced B10.RIII mouse arthritis model assessed as increase of body fat content at 30 mg/kg, po qd for 5 weeks; assay type: organism-based; parameters: dose 30 mg/kg, route oral; conditions: in vivo, 840 h
# [8] = Volume of distribution at steady state in Sprague-Dawley rat at 5 mg/kg, iv; assay type: ADME, organism-based; parameters: dose 5 mg/kg, route intravenous; conditions: in vivo, read-out: Vdss
# [9] = Cmax in Sprague-Dawley rat at 30 mg/kg, po; assay type: ADME, organism-based; parameters: dose 30 mg/kg, route oral; conditions: in vivo
# [10] = target: T1, Glucocorticoid receptor; experiment: Transactivation activity at glucocorticoid receptor in human HeLa cells transfected with luciferase gene linked to MMTV promoter by luciferase assay; assay type: cell-based
# [11] = tested on: Mus musculus; experiment: Toxicity in collagen and Freund's complete adjuvant-induced B10.RIII mouse arthritis model assessed as increase of free fatty acids level at 30 mg/kg, po qd for 5 weeks; assay type: organism-based; parameters: dose 30 mg/kg, route oral; conditions: in vivo, 840 h
# [12] = target: T2, Mineralocorticoid receptor (Homo sapiens, UniProt P08235); experiment: Binding affinity to mineralocorticoid receptor expressed in baculovirus-infected insect cells using tetramethylrhodamine labeled Dexamethasone by fluorescence polarization microplate assay
# T2 sequence (P08235 whole entry): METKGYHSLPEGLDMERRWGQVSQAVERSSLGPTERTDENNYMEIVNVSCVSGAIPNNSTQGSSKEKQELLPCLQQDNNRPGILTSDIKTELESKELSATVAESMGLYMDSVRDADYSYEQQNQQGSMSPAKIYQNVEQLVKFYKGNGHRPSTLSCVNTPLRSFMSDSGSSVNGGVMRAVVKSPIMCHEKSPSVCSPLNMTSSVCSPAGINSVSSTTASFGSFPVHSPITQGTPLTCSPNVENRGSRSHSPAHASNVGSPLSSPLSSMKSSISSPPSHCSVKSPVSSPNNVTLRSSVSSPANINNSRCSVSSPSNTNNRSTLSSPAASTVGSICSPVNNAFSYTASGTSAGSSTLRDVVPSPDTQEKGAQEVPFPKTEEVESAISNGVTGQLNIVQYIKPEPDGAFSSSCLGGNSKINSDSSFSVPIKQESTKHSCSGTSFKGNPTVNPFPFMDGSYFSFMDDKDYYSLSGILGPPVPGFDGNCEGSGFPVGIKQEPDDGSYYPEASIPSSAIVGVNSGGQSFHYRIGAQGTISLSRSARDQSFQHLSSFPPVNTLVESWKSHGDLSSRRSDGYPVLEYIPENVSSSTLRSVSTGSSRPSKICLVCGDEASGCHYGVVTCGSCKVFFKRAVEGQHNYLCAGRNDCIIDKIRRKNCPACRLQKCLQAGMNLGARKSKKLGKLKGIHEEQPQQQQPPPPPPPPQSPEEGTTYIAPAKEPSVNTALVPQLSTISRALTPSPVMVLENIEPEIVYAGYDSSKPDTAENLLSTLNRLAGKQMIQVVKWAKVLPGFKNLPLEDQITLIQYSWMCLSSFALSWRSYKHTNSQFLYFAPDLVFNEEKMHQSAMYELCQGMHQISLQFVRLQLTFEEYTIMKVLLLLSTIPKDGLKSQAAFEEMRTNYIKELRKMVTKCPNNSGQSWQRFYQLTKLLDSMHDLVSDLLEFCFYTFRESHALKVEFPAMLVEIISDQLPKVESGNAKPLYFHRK
# [13] = target: T1, Glucocorticoid receptor; experiment: Transactivation activity at glucocorticoid receptor in HFF assessed as induction of aromatase activity after 18 to 24 hrs by ELISA; assay type: cell-based
# [14] = tested on: Mus musculus; experiment: Antiinflammatory effect in collagen and Freund's complete adjuvant-induced B10.RIII mouse arthritis model assessed as inhibition of disease progression at 30 mg/kg, po qd for 5 weeks; assay type: functional; conditions: 840 h
# [15] = tested on: Mus musculus; experiment: Toxicity in collagen and Freund's complete adjuvant-induced B10.RIII mouse arthritis model assessed as increase of serum insulin level at 30 mg/kg, po qd for 5 weeks; assay type: organism-based; parameters: dose 30 mg/kg, route oral; conditions: in vivo, 840 h
# [16] = tested on: Rattus norvegicus; experiment: AUC (infinity) in Sprague-Dawley rat at 30 mg/kg, po; assay type: ADME, organism-based, Plasma; parameters: time infinity, dose 30 mg/kg, route oral; conditions: in vivo
# [17] = tested on: Mus musculus; experiment: Toxicity in B10.RIII mouse assessed as increase of body fat content at 30 mg/kg, po qd for 5 weeks; assay type: organism-based; parameters: dose 30 mg/kg, route oral; conditions: in vivo, 840 h
# [18] = tested on: Mus musculus; experiment: Toxicity in B10.RIII mouse assessed as increase of serum insulin level at 30 mg/kg, po qd for 5 weeks; assay type: organism-based; parameters: dose 30 mg/kg, route oral; conditions: in vivo, 840 h
# [19] = tested on: Mus musculus; experiment: Antiinflammatory activity in po dosed BALB/c mouse assessed as reduction of LPS-induced plasma TNFalpha level administered 1 hr before LPS challenge by ELISA; assay type: functional
smiles,measurement,setting,value
CC(C)(C[C@@](O)(Cc1cc2ccncc2[nH]1)C(F)(F)F)c1cc(F)ccc1O,Activity,[1],Non-toxic
same,Activity,[2],Toxic
same,F,[3],48%
same,IC50,[4],3.3 nM
same,IC50,[5],2.1 nM
same,half-life,[6],1.85 h
same,Activity,[7],Toxic
same,Vd,[8],7.6 L/kg
same,Cmax,[9],444 ng/mL
same,IC50,[10],80 nM
same,Activity,[11],Non-toxic
same,IC50,[12],210 nM
same,EC50,[13],30 nM
same,inhibition in vivo at 30 mg/kg,[14],92%
same,Activity,[15],Toxic
same,AUC,[16],2236 ng·h/mL
same,Activity,[17],Non-toxic
same,Activity,[18],Non-toxic
same,ED50,[19],< 0.3 mg/kg
